One may read the EC50 as the concentration that produces a half-maximal response. The low end stands for a more potent agent, the high end for a less potent agent.

The assay addresses T1, human RXFP1 (Homo sapiens, UniProt Q9HBX9).
T1 construct: expressed in transfected cells
T1 sequence (Q9HBX9 1-757): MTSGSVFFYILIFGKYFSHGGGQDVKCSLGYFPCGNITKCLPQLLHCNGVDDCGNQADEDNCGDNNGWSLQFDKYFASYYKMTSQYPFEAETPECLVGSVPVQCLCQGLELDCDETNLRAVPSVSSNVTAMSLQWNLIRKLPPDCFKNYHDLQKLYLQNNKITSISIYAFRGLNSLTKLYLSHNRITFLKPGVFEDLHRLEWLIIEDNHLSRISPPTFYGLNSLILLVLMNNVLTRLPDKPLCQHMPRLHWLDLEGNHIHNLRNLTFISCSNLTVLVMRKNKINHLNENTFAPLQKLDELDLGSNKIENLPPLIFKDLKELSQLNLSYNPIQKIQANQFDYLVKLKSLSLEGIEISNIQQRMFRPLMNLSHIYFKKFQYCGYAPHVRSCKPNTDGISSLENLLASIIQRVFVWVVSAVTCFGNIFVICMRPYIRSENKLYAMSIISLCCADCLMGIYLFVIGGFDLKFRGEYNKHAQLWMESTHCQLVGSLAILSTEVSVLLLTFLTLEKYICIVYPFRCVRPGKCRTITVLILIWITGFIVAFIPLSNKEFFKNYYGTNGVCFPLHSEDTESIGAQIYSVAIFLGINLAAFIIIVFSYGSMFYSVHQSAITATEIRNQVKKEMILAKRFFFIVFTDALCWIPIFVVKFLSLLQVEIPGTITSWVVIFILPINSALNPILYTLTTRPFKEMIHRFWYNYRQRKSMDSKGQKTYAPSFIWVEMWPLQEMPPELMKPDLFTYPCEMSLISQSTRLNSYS
The experiment in a line: hRXFP1 HEK293 cAMP assay (HTRF). The class given is cell-based. The note with it: HEK293 cells stably expressing human RXFP1, 30 min at room temperature. An outline of the steps:
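Potency and activity come from a four-parameter logistic fit of cAMP against compound concentration, tested from 0.010 nM up to 50 μM. The assay uses HEK293 cells stably expressing human RXFP1, incubated 30 min at ambient temperature with phosphodiesterase inhibitor IBMX present.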
As to `COc1ccc(/C=C/CCO)cc1C(=O)N[C@@H]1C2CCC(C2=C(C)C)[C@@H]1C(=O)Nc1ccc(F)c(C(F)(F)F)c1` (stereo partly drawn) [Example 32], the midpoint of the response, the EC50, lay at 740 nM.
`COc1ccc(/C=C/C(=O)N2CCO[C@@H](CO)C2)cc1C(=O)N[C@H]1[C@@H](C(=O)Nc2ccc(F)c(C(F)(F)F)c2)[C@H]2CC[C@@H]1/C2=C\C1CC1` [Example 307, (1R,2S,3R,4R,7Z)-7-(cyclopropyl-methylidene)-N-[4-fluoro-3-(trifluoromethyl)phenyl]-3-{5-[(1E)-3-[(2R)-2-(hydroxymethyl)morpholin-4-yl]-3-oxoprop-1-en-1-yl]-2-methoxybenzamido} bicyclo[2.2.1]heptane-2-carboxamide] showed an EC50 of 18.5 nM.
Under `COc1ccc(S(=O)(=O)N2CCO[C@@H](CO)C2)cc1C(=O)NC1C2CCC(/C2=C/C2CC2)[C@@H]1C(=O)Nc1ccc(F)c(C(F)(F)F)c1` (stereo partly drawn) [Example 201, (2S,3R,7Z)-7-(cyclopropylmethyli-dene)-N-[4-fluoro-3-(trifluoromethyl)phe-nyl]-3-(5-{[(2R)-2-(hydroxymethyl)mor-pholin-4-yl]sulfonyl}-2-methoxybenzamido) bicyclo[2.2.1]heptane-2-carboxamide] stands 14 nM; under `COc1c(F)cc(C(=O)NCC2(S(C)(=O)=O)CC2)cc1C(=O)N[C@H]1[C@@H](C(=O)Nc2ccc(F)c(C(F)(F)F)c2)[C@H]2CC[C@@H]1/C2=C\C(F)(F)F` [Example 368, 5-fluoro-N3-[(1R,2R,3S,4R,7Z)-3-{[4-fluoro-3-(trifluoromethyl)phenyl]carbamoyl}-7-(2,2,2-trifluoroethylidene)bicyclo[2.2.1]heptan-2-yl]-N1-[(1-methanesulfonyl-cyclopropyl)methyl]-4-methoxybenzene-1,3-dicarboxamide], 9.1 nM.
The value for `COc1ccc(C(F)(F)F)cc1C(=O)N[C@@H]1C2CCC(C2=C(C)C)[C@@H]1C(=O)Nc1ccc(F)c(C(F)(F)F)c1` (stereo partly drawn) [Example 359] was 1500 nM; that for `COc1ccc(C2CC3CC(CO)CC32)cc1C(=O)N[C@H]1[C@@H](C(=O)Nc2ccc(F)c(C(F)(F)F)c2)[C@H]2CC[C@@H]1/C2=C\C1CC1` (single isomer, unassigned) [Example 349] was 60.9 nM; that for `COc1ccc(/C=C/C(=O)N[C@H]2C[C@@H](O)C2)cc1C(=O)N[C@@H]1C2CCC(/C2=C/C(F)(F)F)[C@@H]1C(=O)Nc1ccc(F)c(C(F)(F)F)c1` (stereo partly drawn) [Example 134, (2S,3R,7Z)-N-[4-fluoro-3-(trifluoromethyl)phe-nyl]-3-{2-methoxy-5-[(1E)-2-{[(1s,3s)-3-hydroxycyclobutyl]car-bamoyl}eth-1-en-1-yl]benzamido}-7-(2,2,2-trifluoroethylidene)bi-cyclo[2.2.1]heptane-2-carboxamide] was 561 nM.
The value for `COc1ccc(C2CCC(C(F)(F)F)CC2)cc1C(=O)NC1C2CCC(/C2=C/C(F)(F)F)[C@@H]1C(=O)Nc1ccc(F)c(C(F)(F)F)c1` (stereo partly drawn) [Example 177, (7Z)-N-[4-fluoro-3-(trifluoromethyl)phe-nyl]-3-{2-methoxy-5-[4-(trifluoromethyl)cyclo-hexyl]benzamido}-7-(2,2,2-trifluoroethylidene)bi-cyclo[2.2.1]heptane-2-carboxamide] was 298 nM; that for `COc1ccc(S(=O)(=O)Nc2nnn[nH]2)cc1C(=O)NC1C2CCC(/C2=C/C(F)(F)F)[C@@H]1C(=O)Nc1ccc(F)c(C(F)(F)F)c1` (stereo partly drawn) [Example 206, (2S,3R,7Z)-N-[4-fluoro-3-(trifluoromethyl)phe-nyl]-3-{2-methoxy-5-[(1H-1,2,3,4-tetrazol-5-yl)sulfamoyl]benza-mido}-7-(2,2,2-trifluoroethylidene)bi-cyclo[2.2.1]heptane-2-carboxamide] was 3050 nM.
Regarding `COc1ccc(C(=O)N2CCC(S(C)(=O)=O)CC2)cc1C(=O)N[C@H]1[C@@H](C(=O)Nc2ccc(F)c(C(F)(F)F)c2)[C@H]2CC[C@@H]1/C2=C\C1CC1` [Example 247, (1R,2S,3R,4R,7Z)-7-(cyclopropylmethyl-idene)-N-[4-fluoro-3-(trifluoromethyl)phenyl]-3-[5-(4-methanesulfonyl-piperidine-1-carbonyl)-2-methoxybenzamido] bicyclo[2.2.1] heptane-2-carboxamide], a half-maximal response (EC50) required 27.2 nM.
Turning to `COc1ccc(C(=O)N2C3CCC2COC3)cc1C(=O)N[C@H]1[C@@H](C(=O)Nc2ccc(F)c(C(F)(F)F)c2)[C@H]2CC[C@@H]1/C2=C\C1CC1` [Example 258, (1R,2S,3R, 4R,7Z)-7-(cyclopropyl-methylidene)-N-[4-fluoro-3-(trifluoromethyl)phenyl]-3-(2-methoxy-5-{3-oxa-8-azabicyclo [3.2.1]octane-8-carbonyl}benzamido) bicyclo[2.2.1] heptane-2-carboxamide], the 50% effective concentration (EC50) stood at 32.9 nM.
The value for “(1R,4R,7Z)-7-(2- cyclobutylethylidene)- N-[4-fluoro-3- (trifluoromethyl) phenyl]-3-[5-(3- hydroxy-3- methylbutyl)-2- methoxybenzamido] bicyclo[2.2.1] heptane- 2-carboxamide [Example 265]” was 66.2 nM.
The value for `COc1ccc(C(=O)N2CC(O)C2)cc1C(=O)N[C@H]1[C@@H](C(=O)Nc2ccc(F)c(C(F)(F)F)c2)[C@H]2CC[C@@H]1/C2=C\C1CC1` [Example 251, (1R,2S,3R,4R,7Z)-7-(cyclopropylmethyl-idene)-N-[4-fluoro-3-(trifluoromethyl)phenyl]-3-[5-(3-hydroxyazetidine-1-carbonyl)-2-methoxybenzamido] bicyclo[2.2.1]heptane-2-carboxamide] was 44 nM.
In turn, `COc1ccc(CCCCO)cc1C(=O)N[C@@H]1C2CCC(/C2=C/C(F)(F)F)[C@@H]1C(=O)Nc1ccc(F)c(C(F)(F)F)c1` (stereo partly drawn) [Example 98, (2S,3R,7Z)-N-[4-fluoro-3-(trifluoromethyl)phe-nyl]-3-[5-(4-hydroxybutyl)-2-methoxybenzamido]-7-(2,2,2-trifluoroethylidene)bi-cyclo[2.2.1]heptane-2-carboxamide] had an EC50 of 111 nM. This EC50 is about 2.5-fold higher than that of the molecule before.
`COc1ccc(CCCCC(F)(F)F)cc1C(=O)NC1C2CCC(/C2=C/C2CCC2)[C@@H]1C(=O)Nc1ccc(F)c(C(F)(F)F)c1` (stereo partly drawn) [Example 193, (7Z)-7-(cyclobutylmethyli-dene)-N-[4-fluoro-3-(trifluoromethyl)phe-nyl]-3-[2-methoxy-5-(5,5,5-trifluoropentyl)benz-amido]bicyclo[2.2.1] heptane-2-carboxamide] gave an EC50 of 55 nM.
Under `COc1ccc(C2CC2C(=O)O)cc1C(=O)N[C@@H]1C2CCC(/C2=C/C(F)(F)F)[C@@H]1C(=O)Nc1ccc(F)c(C(F)(F)F)c1` (single isomer, unassigned) [Example 62] stands 172 nM; under `COc1ccc(CN2C(=O)NC3(CCCC3)C2=O)cc1C(=O)N[C@@H]1C2CCC(/C2=C/C2CC2)[C@@H]1C(=O)Nc1ccc(F)c(C(F)(F)F)c1` (stereo partly drawn) [Example 21, (2S,3R,7Z)-7-(cyclopropylmethyli-dene)-3-[5-({2,4-dioxo-1,3-diazaspiro[4.4]nonan-3-yl}methyl)-2-methoxybenzamido]-N-[4-fluoro-3-(trifluoromethyl)phe-nyl]bicyclo[2.2.1]hept-ane-2-carboxamide], 330 nM; under `COc1ccc(C(C)CCO)cc1C(=O)N[C@@H]1C2CCC(/C2=C/C(F)(F)F)[C@@H]1C(=O)Nc1ccc(F)c(C(F)(F)F)c1` (single isomer, unassigned) [Example 61], 603 nM.
Under `COc1ccc(C(=O)N2CCCC(CO)C2)cc1C(=O)N[C@H]1[C@@H](C(=O)Nc2ccc(F)c(C(F)(F)F)c2)[C@H]2CC[C@@H]1/C2=C\C1CC1` (stereo partly drawn) [Example 233, (1R,2S,3R,4R,7Z)-7-(cyclopropyl-methylidene)-N-[4-fluoro-3-(trifluoromethyl)phenyl]-3-[5-[3-(hydroxymethyl)piperidine-1-carbonyl]-2-methoxybenzamido} bicyclo[2.2.1] heptane-2-carboxamide] stands 65.7 nM.
The value for `COc1ccc(CC[C@H](C)O)cc1C(=O)N[C@@H]1C2CCC(/C2=C/C(F)(F)F)[C@@H]1C(=O)Nc1ccc(F)c(C(F)(F)F)c1` (stereo partly drawn) [Example 92, (2S,3R,7Z)-N-[4-fluoro-3-(trifluoromethyl)phe-nyl]-3-{5-[(3S)-3-hydroxybutyl]-2-methoxybenzamido}-7-(2,2,2-trifluoroethylidene)bi-cyclo[2.2.1]heptane-2-carboxamide] was 172 nM; that for `COc1ccc(C#CCCCO)cc1C(=O)N[C@@H]1C2CCC(/C2=C/C(F)(F)F)[C@@H]1C(=O)Nc1ccc(F)c(C(F)(F)F)c1` (stereo partly drawn) [Example 77, (2S,3R,7Z)-N-[4-fluoro-3-(trifluoromethyl)phe-nyl]-3-[5-(5-hydroxypent-1-yn-1-yl)-2-methoxybenzamido]-7-(2,2,2-trifluoroethylidene)bi-cyclo[2.2.1]heptane-2-carboxamide] was 62 nM.

For the origin of these results see patent publication US20250268903A1, “RXFP1 AGONISTS” (BRISTOL-MYERS SQUIBB COMPANY, priority 2021, published 2025).
